Source: US8735398B2 (Bristol-Myers Squibb Company, priority 2009, dated 2014)
Where two headings read alike, the source gives them in different places.

Tested on: HCV 1b genotype
Assay: HCV replicon assay (HCV-neo replicon cells, wild-type)
Assay type: cell-based, Hepatitis C virus
Conditions: HCV 1b genotype replicon
Method in brief: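 HCV-neo replicon cells (wild-type) and replicon cells carrying NS5A resistance substitutions were treated with compounds; assay per O'Boyle et al. 2005, with luciferase-reporter read-out variants also used.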

[1] = Hepatitis C virus, class symbol, read-out: EC50 Range against HCV 1b
[2] = Hepatitis C virus, class symbols, read-out: EC50 Range against HCV 1b
[3] = class symbol, read-out: EC50 Range against HCV 1b
[4] = Hepatitis C virus, read-out: EC50 1b

## Cc1nc(-c2ccc(NC(=O)[C@@H]3CCCN3C(=O)OCc3ccccc3)cc2)c(-c2ccc(NC(=O)[C@@H]3CCCN3C(=O)OCc3ccccc3)cc2)o1 [OL-5, (2S,2′S)-2,2′-[(2-methyl-4,5-oxazolediyl)bis(4,1-phenyleneiminocarbonyl)]bis-1-pyrrolidinecarboxylic acid, bis(phenylmethyl) ester]
[1]
  EC50: 100 to 999 nM

## C[C@H](NC(=O)c1cccc(Cl)n1)C(=O)Nc1ccc(-c2nnc(-c3ccc(NC(=O)[C@H](C)NC(=O)c4cccc(Cl)n4)cc3)o2)cc1 [RK-20, N,N′-(1,3,4-oxadiazole-2,5-diylbis(4,1-phenyleneimino((2S)-1-oxo-1,2-propanediyl)))bis(6-chloro-2-pyridinecarboxamide)]
[1]
  EC50: 1000 to 10000 nM

## Cn1cnc(CC(=O)N2CCC[C@H]2C(=O)Nc2ccc(-c3cnc(-c4ccc(NC(=O)[C@@H]5CCCN5C(=O)Cc5cn(C)cn5)cc4)o3)cc2)c1 [XY-42, (2S,2′S)-N,N′-(1,3-oxazole-2,5-diyldi-4,1-phenylene)bis(1-((1-methyl-1H-imidazol-4-yl)acetyl)-2-pyrrolidinecarboxamide)]
[2]
  EC50: 1000 to 10000 nM

## C[C@H](NC(=O)OCc1ccccc1)C(=O)Nc1ccc(-c2n[nH]c(=O)n2-c2ccc(NC(=O)[C@H](C)NC(=O)OCc3ccccc3)cc2)cc1 [OL-12, [(1,5-dihydro-5-oxo-4H-1,2,4-triazole-3,4-diyl)bis[4,1-phenyleneimino[(1S)-1-methyl-2-oxo-2,1-ethanediyl]]]bis-carbamic acid, bis(phenylmethyl) ester]
[1]
  EC50: 1000 to 10000 nM

## C[C@](O)(C(=O)N1CCC[C@H]1C(=O)Nc1ccc(-c2ccc(-c3ccc(NC(=O)[C@@H]4CCCN4C(=O)[C@](C)(O)c4ccccc4)cc3)o2)cc1)c1ccccc1 [JG-58, (2S,2′S)-N,N′-(2,5-furandiyldi-4,1-phenylene)bis(1-((2R)-2-hydroxy-2-phenylpropanoyl)-2-pyrrolidinecarboxamide)]
[1]
  EC50: 4.57 to 99 nM

## O=C(Nc1ccc(-c2cnc(-c3ccc(NC(=O)[C@@H]4CCCN4C(=O)C(O)C(F)(F)F)cc3)o2)cc1)[C@@H]1CCCN1C(=O)C(O)C(F)(F)F (stereo partly drawn) [JR-2, (2S,2′S)-N,N′-(2,5-oxazolediyldi-4,1-phenylene)bis[1-(3,3,3-trifluoro-2-hydroxy-1-oxopropyl)-2-pyrrolidinecarboxamide]]
[2]
  EC50: 100 to 999 nM

## O=C(Nc1ccc(-c2ccc(-c3ccc(NC(=O)[C@@H]4CCCN4C(=O)[C@H](O)c4ccccc4)cc3)o2)cc1)[C@@H]1CCCN1C(=O)[C@H](O)c1ccccc1 [JG-56, (2S,2′S)-N,N′-(2,5-furandiyldi-4,1-phenylene)bis(1-((2R)-2-hydroxy-2-phenylacetyl)-2-pyrrolidinecarboxamide)]
[3]
  EC50: < 4.57 nM
[4]
  EC50: < 5 nM

## O=C(Nc1ccc(-c2nc[nH]c2-c2ccc(NC(=O)[C@@H]3CCCN3C(=O)c3ccc4occc4c3)cc2)cc1)[C@@H]1CCCN1C(=O)c1ccc2occc2c1 [JG-52, (2S,2′S)-N,N′-(1H-imidazole-4,5-diyldi-4,1-phenylene)bis(1-(1-benzofuran-5-ylcarbonyl)-2-pyrrolidinecarboxamide)]
[1]
  EC50: 100 to 999 nM

## O=C(Nc1ccc(-c2nncn2-c2ccc(NC(=O)[C@@H]3C[C@@H](O)CN3C(=O)Cc3ccccc3)cc2)cc1)[C@@H]1C[C@@H](O)CN1C(=O)Cc1ccccc1 [OL-17, (2S,4R,2′S,4′R)-N,N′-(4H-1,2,4-triazole-3,4-diyldi-4,1-phenylene)bis[4-hydroxy-1-(phenylacetyl)-2-pyrrolidinecarboxamide]]
[1]
  EC50: 1000 to 10000 nM

## O=C(Nc1ccc(-c2cnc(-c3ccc(NC(=O)C4CC5CC5N4C(=O)C(O)c4ccccc4)cc3)o2)cc1)C1CC2CC2N1C(=O)C(O)c1ccccc1 [CB-5, (1S,3S,5S,1′S,3′S,5′S)-N,N′-(1,3-oxazole-2,5-diyldi-4,1-phenylene)bis(2-((2S)-2-hydroxy-2-phenylacetyl)-2-azabicyclo[3.1.0]hexane-3-carboxamide)]
[3]
  EC50: 4.57 to 99 nM

## C[C@@](O)(C(=O)N1CCC[C@H]1C(=O)Nc1ccc(-c2cc(-c3ccc(NC(=O)[C@@H]4CCCN4C(=O)[C@@](C)(O)c4ccccc4)cc3)[nH]n2)cc1)c1ccccc1 [JG-39, (2S,2′S)-N,N′-(1H-pyrazole-3,5-diyldi-4,1-phenylene)bis(1-((2S)-2-hydroxy-2-phenylpropanoyl)-2-pyrrolidinecarboxamide)]
[1]
  EC50: < 4.57 nM
[4]
  EC50: < 5 nM

## O=C(Nc1ccc(-c2nnc(-c3ccc(NC(=O)[C@@H]4CCCN4C(=O)[C@@H]4CCCO4)cc3)o2)cc1)[C@@H]1CCCN1C(=O)C1CCCO1 (stereo partly drawn) [Example D-60, (S,2S,2′S)-N,N′-(4,4′-(1,3,4-oxadiazole-2,5-diyl)bis(4,1-phenylene))bis(1-((S)-tetrahydrofuran-2-carbonyl)pyrrolidine-2-carboxamide)]
[1]
  EC50: 100 to 999 nM
[4]
  EC50: 650 nM

## CC(=O)N1CCC[C@H]1C(=O)Nc1ccc(-c2cnc(-c3ccc(NC(=O)[C@@H]4C=CCN4C(=O)c4ccno4)cc3)o2)cc1 [Example D-3, (2S)-N-[4-[5-[4-[[[(2S)-1-acetyl-2-pyrrolidinyl]carbonyl]amino]phenyl]-2-oxazolyl]phenyl]-2,5-dihydro-1-(5-isoxazolylcarbonyl)-1H-pyrrole-2-carboxamide]
[1]
  EC50: 1000 to 10000 nM

## O=C(Nc1ccc(-c2cnc(-c3ccc(NC(=O)[C@@H]4C[C@@H](O)CN4C(=O)Cc4ccccn4)cc3)o2)cc1)[C@@H]1C[C@@H](O)CN1C(=O)Cc1ccccn1 [XY-58, (2S,4R,2′S,4′R)-N,N′-(1,3-oxazole-2,5-diyldi-4,1-phenylene)bis(4-hydroxy-1-(2-pyridinylacetyl)-2-pyrrolidinecarboxamide)]
Class symbols, read-out: EC50 Range against HCV 1b
  EC50: 100 to 999 nM

## O=C(Nc1ccc(-c2cnc(-c3ccc(NC(=O)[C@@H]4CCCN4C(=O)C(O)c4c[nH]c5cnccc45)cc3)o2)cc1)[C@@H]1CCCN1C(=O)C(O)c1c[nH]c2cnccc12 (stereo partly drawn) [Example D-17, (2S,2′S)-N,N′-(4,4′-(oxazole-2,5-diyl)bis(4,1-phenylene))bis(1-(2-hydroxy-2-(1H-pyrrolo[2,3-c]pyridin-3-yl)acetyl)pyrrolidine-2-carboxamide)]
[3]
  EC50: 1000 to 10000 nM
read-out: EC50 1b
  EC50: 6820 nM

## COC(C(=O)N1C[C@H](OC(C)(C)C)C[C@H]1C(=O)Nc1ccc(-c2cnc(-c3ccc(NC(=O)[C@@H]4C[C@@H](OC(C)(C)C)CN4C(=O)C(OC)c4ccccc4)cc3)o2)cc1)c1ccccc1 (stereo partly drawn) [XY-67, (2S,4R,2′S,4′R)-N,N′-(1,3-oxazole-2,5-diyldi-4,1-phenylene)bis(4-tert-butoxy-1-(methoxy(phenyl)acetyl)-2-pyrrolidinecarboxamide)]
[2]
  EC50: 4.57 to 99 nM

## O=C(Nc1ccc(-c2cnc(-c3ccc(NC(=O)N[C@@H]4CCN(C(=O)[C@H](O)c5ccccc5)C4)cc3)o2)cc1)N[C@@H]1CCN(C(=O)[C@H](O)c2ccccc2)C1 [FY-5, N′,N′″-(1,3-oxazole-2,5-diyldi-4,1-phenylene)bis(1-((3R)-1-((2R)-2-hydroxy-2-phenylacetyl)-3-pyrrolidinyl)urea)]
[1]
  EC50: 100 to 999 nM

## O=C(Nc1ccc(-c2cc(-c3ccc(NC(=O)[C@@H]4CCCN4C(=O)Cc4ccccc4)cc3)[nH]n2)cc1)[C@@H]1CCCN1C(=O)Cc1ccccc1 [OL-27, (2S,2′S)-N,N′-(1H-pyrazole-3,5-diyldi-4,1-phenylene)bis[1-(phenylacetyl)-2-pyrrolidinecarboxamide]]
[1]
  EC50: 4.57 to 99 nM
[4]
  EC50: 10 nM

## CCOc1ccccc1C(=O)N1CCC[C@H]1C(=O)Nc1ccc(-c2nnc(-c3ccc(NC(=O)[C@@H]4CCCN4C(=O)c4ccccc4OCC)cc3)o2)cc1 [RK-8, (2S,2′S)-N,N′-(1,3,4-oxadiazole-2,5-diyldi-4,1-phenylene)bis(1-(2-ethoxybenzoyl)-2-pyrrolidinecarboxamide)]
[1]
  EC50: 1000 to 10000 nM
[4]
  EC50: 1850 nM
